Converted amounts (≈) assume the structure as drawn. Like-named read-outs stand apart in the source and are kept apart here. Numbered stars: 1 amine (or outer) side, 2 acyl side, 3 side chain; on linkers, the order of the positions; unused ones are H or OH. Bridge positions count the residues as written; N and C are the ends. Side chains are listed from the residue outwards. Peptide text beside a SMILES is read from it. * marks the point of attachment. C20 diacid = O=C(O)CCCCCCCCCCCCCCCCCCC(=O)*; γGlu = O=C(O)[C@H](CCC(=O)[*:2])N[*:1]; AEEA = NCCOCCOCC(=O)O
How the values were obtained:
[1] = target: T1, rat amylin receptor (rat calcitonin receptor + rat RAMP 3) (Rattus norvegicus, UniProt P32214+Q9JJ73); assay: ASSAY (VI) binding to the rat amylin receptor
T1 construct: expressed in transfected cells; host or cells: BHK tk'ts 13 (transient, FuGENE 6), membranes
T1 sequence (P32214 25-479 isoform P32214-2 limits assumed): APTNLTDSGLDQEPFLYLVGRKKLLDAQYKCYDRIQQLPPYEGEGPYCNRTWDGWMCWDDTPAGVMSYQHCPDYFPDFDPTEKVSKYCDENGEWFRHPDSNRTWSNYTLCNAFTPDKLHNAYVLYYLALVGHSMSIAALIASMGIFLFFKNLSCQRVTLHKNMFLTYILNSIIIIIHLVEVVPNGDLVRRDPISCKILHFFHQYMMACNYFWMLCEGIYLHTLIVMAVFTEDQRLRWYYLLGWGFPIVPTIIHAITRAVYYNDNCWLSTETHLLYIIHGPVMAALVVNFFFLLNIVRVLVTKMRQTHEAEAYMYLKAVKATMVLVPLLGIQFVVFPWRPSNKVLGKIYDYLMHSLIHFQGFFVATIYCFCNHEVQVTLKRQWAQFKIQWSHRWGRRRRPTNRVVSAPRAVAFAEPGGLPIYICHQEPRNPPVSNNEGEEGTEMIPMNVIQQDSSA
T1 sequence (Q9JJ73 23-147 partner): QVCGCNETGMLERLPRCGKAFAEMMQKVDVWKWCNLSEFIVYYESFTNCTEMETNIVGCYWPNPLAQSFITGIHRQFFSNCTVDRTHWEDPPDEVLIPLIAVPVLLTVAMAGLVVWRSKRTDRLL
In short: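 This assay measured binding to the rat amylin receptor. BHK tk′ts 13 cells were transiently transfected with the rat calcitonin receptor using FuGENE® 6 (Roche), following the manufacturer's recommendations. About 48 hours after transfection, the cells were harvested and membranes were prepared from them for the binding determination.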

[2] = target: T2, human amylin receptor (membranes from Amylin 3(a)/CRE-luc cells) (Homo sapiens, UniProt O60896+P30988); assay: ASSAY (V) binding to the human amylin receptor (SPA, 125I-rat amylin);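 further: competition binding of cell membranes (35 ng/µL) mixed with SPA beads in 384-well plates at 40 µL total volume, read by scintillation counting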
T2 construct: expressed in transfected cells
T2 sequence (P30988 25-474): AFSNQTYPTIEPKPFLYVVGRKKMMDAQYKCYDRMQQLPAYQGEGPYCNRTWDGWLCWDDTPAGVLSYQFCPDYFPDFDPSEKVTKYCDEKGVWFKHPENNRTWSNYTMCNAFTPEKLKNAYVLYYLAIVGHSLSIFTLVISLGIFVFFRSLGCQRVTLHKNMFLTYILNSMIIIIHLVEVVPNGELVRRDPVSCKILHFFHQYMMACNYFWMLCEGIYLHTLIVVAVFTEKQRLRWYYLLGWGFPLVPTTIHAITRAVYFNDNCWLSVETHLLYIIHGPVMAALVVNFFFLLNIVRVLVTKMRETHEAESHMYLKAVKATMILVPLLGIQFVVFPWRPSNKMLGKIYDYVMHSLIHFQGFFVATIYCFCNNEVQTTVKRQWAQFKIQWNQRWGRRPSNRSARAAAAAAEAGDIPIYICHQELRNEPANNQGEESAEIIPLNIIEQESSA
T2 sequence (O60896 24-148 partner): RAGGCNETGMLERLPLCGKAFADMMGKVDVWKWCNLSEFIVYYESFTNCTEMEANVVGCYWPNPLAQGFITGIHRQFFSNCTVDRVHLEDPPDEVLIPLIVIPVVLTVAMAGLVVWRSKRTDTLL

rat calcitonin receptor = target: T3, rat calcitonin receptor (Rattus norvegicus, UniProt P32214); assay: ASSAY (VIII) binding to the rat calcitonin receptor; conditions: Table 7, read-out: rCTR bind IC50
T3 construct: expressed in transfected cells; host or cells: BHK tk'ts 13 (transient, FuGENE 6), membranes
T3 sequence (P32214 25-479 isoform P32214-2 limits assumed): T1 sequence (P32214 25-479 isoform P32214-2 limits assumed)
In short: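 Rat calcitonin receptor is expressed transiently in BHK tk′ts 13 cells cultured in DMEM with 10% FBS. Roughly two days (approximately 48 hours) post-transfection, cells are harvested for membrane preparation.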

[3] = ASSAY (IV) determination of solubility; type: physicochemical
In short: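 Dissolve polypeptide in water ([…] stock); combine 1:1 with each 100 mM buffer (glycylglycine pH 3.0/4.0/5.0; bistrispropane pH 6.0/6.5/7.0/7.5/8.0); hold 18 hours at room temperature; centrifuge; quantify polypeptide by UPLC.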

[4] = target: T4, human amylin 3(a) receptor (human calcitonin receptor + RAMP-3) in BHK570 cells (Homo sapiens, UniProt O60896+P30988); assay: ASSAY (II)a functional assay, human amylin receptor (CRE luciferase); type: cell-based
T4 construct: expressed in transfected cells
In short: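 BHK CRE-luc cells, calcitonin (a) receptor ± RAMP-3 (amylin 3(a)); overnight seeding, 37° C/5% CO2. 3 h ligand exposure, DMEM/10% FBS/10 mM Hepes pH 7.4. LucLite 30 min RT; luminescence (SPC).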

[5] = Table 7, rat binding selectivity, rCTR IC50 / rAmylin-R IC50
[6] = Table 7a (preferred compounds), rat binding selectivity, rCTR IC50 / rAmylin-R IC50
[7] = ratio of rCTR bind IC50 to rAmylin-R bind IC50
[8] = Table 5, selectivity, hCTR bind IC50 / hAmylin-R bind IC50
[9] = Table 5a, selectivity, hCTR bind IC50 / hAmylin-R bind IC50
[10] = Table 5b, selectivity, hCTR bind IC50 / hAmylin-R bind IC50
[11] = Table 5c, selectivity, hCTR bind IC50 / hAmylin-R bind IC50
[12] = Table 7, human binding selectivity, included for comparison
[13] = Table 7a (preferred compounds), human binding selectivity, included for comparison
[14] = ratio of human calcitonin receptor binding IC50 to human amylin receptor binding IC50
[15] = hCTR funct. EC50 divided by hAmylin-R funct. EC50
[16] = hCTR funct. EC50 over hAmylin-R funct. EC50
[17] = human functional selectivity: hCTR funct. EC50 / hAmylin-R funct. EC50

Row | Structure (SMILES) | Ratio rCT/rAmylin binding [1, 5] | Ratio rCT/rAmylin binding [1, 6] | Ratio rCT/rAmylin binding [1, 7] | Ratio hCT/hAmylin binding [2, 8] | Ratio hCT/hAmylin binding [2, 9] | Ratio hCT/hAmylin binding [2, 10] | Ratio hCT/hAmylin binding [2, 11] | Ratio hCT/hAmylin binding [2, 12] | Ratio hCT/hAmylin binding [2, 13] | Ratio hCT/hAmylin binding [2, 14] | IC50 (rat calcitonin receptor) | Ratio hCT/hAmylin funct. [4, 15] | Ratio hCT/hAmylin funct. [4, 16] | Ratio hCT/hAmylin funct. [4, 17] | further results
1 | CC[C@H](C)[C@H](NC(=O)[C@H](C)NC(=O)CNC(=O)[C@H](Cc1ccccc1)NC(=O)[C@H](CC(N)=O)NC(=O)[C@@H]1CCCN1C(=O)[C@H](CO)NC(=O)[C@H](CO)NC(=O)[C@H](Cc1c[nH]cn1)NC(=O)[C@H](CCCNC(=N)N)NC(=O)[C@H](CC(C)C)NC(=O)[C@H](Cc1ccccc1)NC(=O)[C@H](CO)NC(=O)[C@H](C)NC(=O)[C@H](CC(C)C)NC(=O)[C@H](CCCNC(=N)N)NC(=O)[C@H](CCC(N)=O)NC(=O)[C@@H](NC(=O)[C@H](C)NC(=O)[C@@H]1CSSC[C@H](NC(=O)[C@@H](N)CCCCNC(=O)COCCOCCNC(=O)CC[C@H](NC(=O)CCCCCCCCCCCCCCCCCCC(=O)O)C(=O)O)C(=O)N[C@@H](CC(N)=O)C(=O)N[C@@H]([C@@H](C)O)C(=O)N[C@@H](C)C(=O)N[C@@H]([C@@H](C)O)C(=O)N1)[C@@H](C)O)C(=O)N1CCC[C@H]1C(=O)N[C@@H](CO)C(=O)N[C@@H](CO)C(=O)N[C@H](C(=O)N1CCC[C@H]1C(=O)N[C@H](C(=O)NCC(=O)N[C@@H](CO)C(=O)N[C@@H](CC(N)=O)C(=O)N[C@H](C(=O)N[C@@H](Cc1ccc(O)cc1)C(N)=O)[C@@H](C)O)C(C)C)[C@@H](C)O [Example 73] (H-K([AEEA-γGlu-C20 diacid])CNTATCATQRLASFLRHSSPNFGAIPSSTPVGSNTY-NH2; disulfide 2-7 (inferred)) | 177.7 | 177.7 | 177.7 | 51.7 | 51.7 | 51.7 | 51.7 | 51.7 | 51.7 | 51.7 | 50.3 nM | 11.3 | 11.3 | 11.3 | IC50 [1]: 0.283 nM; solubility at 18 h ([3]; pH 3.0, read-out: Solubility pH 3.0 Concentration): ≥ 200 µM; solubility at 18 h ([3]; pH 4.0, read-out: Solubility pH 4.0 Concentration): ≥ 200 µM; solubility at 18 h ([3]; pH 5.0, read-out: Solubility pH 5.0 Concentration): ≥ 200 µM; solubility at 18 h ([3]; pH 6.0, read-out: Solubility pH 6.0 Concentration): ≥ 200 µM; solubility at 18 h ([3]; pH 6.5, read-out: Solubility pH 6.5 Concentration): ≥ 200 µM; solubility at 18 h ([3]; pH 7.0, read-out: Solubility pH 7.0 Concentration): ≥ 200 µM; solubility at 18 h ([3]; pH 7.5, read-out: Solubility pH 7.5 Concentration): ≥ 200 µM; solubility at 18 h ([3]; pH 8.0, read-out: Solubility pH 8.0 Concentration): 172 µM (≈ 771 µg/mL)
2 | CC[C@H](C)[C@H](NC(=O)[C@H](C)NC(=O)CNC(=O)[C@H](Cc1ccccc1)NC(=O)[C@H](CC(N)=O)NC(=O)[C@@H]1CCCN1C(=O)[C@H](CO)NC(=O)[C@H](CO)NC(=O)[C@H](Cc1c[nH]cn1)NC(=O)[C@H](CCCNC(=N)N)NC(=O)[C@H](CC(C)C)NC(=O)[C@H](Cc1ccccc1)NC(=O)[C@H](Cc1c[nH]cn1)NC(=O)[C@H](C)NC(=O)[C@H](CC(C)C)NC(=O)[C@H](CCCNC(=N)N)NC(=O)[C@H](CCC(N)=O)NC(=O)[C@@H](NC(=O)[C@H](C)NC(=O)[C@@H]1CSSC[C@H](NC(=O)[C@H](CCCNC(=N)N)NC(=O)CNC(=O)CC[C@H](NC(=O)CCCCCCCCCCCCCCCCCCC(=O)O)C(=O)O)C(=O)N[C@@H](CC(N)=O)C(=O)N[C@@H]([C@@H](C)O)C(=O)N[C@@H](C)C(=O)N[C@@H]([C@@H](C)O)C(=O)N1)[C@@H](C)O)C(=O)N1CCC[C@H]1C(=O)N[C@@H](CO)C(=O)N[C@@H](CO)C(=O)N[C@H](C(=O)N[C@@H](CC(N)=O)C(=O)N[C@H](C(=O)NCC(=O)N[C@@H](Cc1c[nH]cn1)C(=O)N[C@@H](CC(N)=O)C(=O)N[C@H](C(=O)N[C@@H](Cc1ccc(O)cc1)C(N)=O)[C@@H](C)O)C(C)C)[C@@H](C)O [Example 100] ({C20 diacid-γGlu}-GRCNTATCATQRLAHFLRHSSPNFGAIPSSTNVGHNTY-NH2; disulfide 3-8 (inferred)) | 27.7 | 27.7 | 27.7 | 65.3 | 65.3 | 65.3 | 65.3 | 65.3 | 65.3 | 65.3 | 311 nM | 6.8 | 6.8 | 6.8 | IC50 ([1]; Table 7, binding to rat amylin receptor, read-out: rAmylin-R bind IC50): 11.2 nM; solubility at 18 h ([3]; bistrispropane buffer, pH 6.5, read-out: Solubility pH 6.5 Concentration): ≥ 200 µM; solubility at 18 h ([3]; bistrispropane buffer, pH 7.5, read-out: Solubility pH 7.5 Concentration): 26 µM (≈ 118 µg/mL); solubility at 18 h ([3]; bistrispropane buffer, pH 6.0, read-out: Solubility pH 6.0 Concentration): ≥ 200 µM; solubility at 18 h ([3]; bistrispropane buffer, pH 7.0, read-out: Solubility pH 7.0 Concentration): 109 µM (≈ 495 µg/mL); solubility at 18 h ([3]; bistrispropane buffer, pH 8.0, read-out: Solubility pH 8.0 Concentration): 31 µM (≈ 141 µg/mL); solubility at 18 h ([3]; glycylglycine buffer, pH 3.0, read-out: Solubility pH 3.0 Concentration): ≥ 200 µM; solubility at 18 h ([3]; glycylglycine buffer, pH 4.0, read-out: Solubility pH 4.0 Concentration): ≥ 200 µM; Solubility pH 6.5 Concentration ([3]; pH 6.5 (Table 9a)): ≧200 μM

Source: patent publication US9023789B2, “Amylin analogs and pharmaceutical compositions thereof” (Novo Nordisk A/S, priority 2012, dated 2015)
